Holding throughout (type): functional, cell-based
The target of data set [1] is T1, Solute carrier family 15 member 1 (Rattus norvegicus) (UniProt P51574).
T1 sequence (whole entry): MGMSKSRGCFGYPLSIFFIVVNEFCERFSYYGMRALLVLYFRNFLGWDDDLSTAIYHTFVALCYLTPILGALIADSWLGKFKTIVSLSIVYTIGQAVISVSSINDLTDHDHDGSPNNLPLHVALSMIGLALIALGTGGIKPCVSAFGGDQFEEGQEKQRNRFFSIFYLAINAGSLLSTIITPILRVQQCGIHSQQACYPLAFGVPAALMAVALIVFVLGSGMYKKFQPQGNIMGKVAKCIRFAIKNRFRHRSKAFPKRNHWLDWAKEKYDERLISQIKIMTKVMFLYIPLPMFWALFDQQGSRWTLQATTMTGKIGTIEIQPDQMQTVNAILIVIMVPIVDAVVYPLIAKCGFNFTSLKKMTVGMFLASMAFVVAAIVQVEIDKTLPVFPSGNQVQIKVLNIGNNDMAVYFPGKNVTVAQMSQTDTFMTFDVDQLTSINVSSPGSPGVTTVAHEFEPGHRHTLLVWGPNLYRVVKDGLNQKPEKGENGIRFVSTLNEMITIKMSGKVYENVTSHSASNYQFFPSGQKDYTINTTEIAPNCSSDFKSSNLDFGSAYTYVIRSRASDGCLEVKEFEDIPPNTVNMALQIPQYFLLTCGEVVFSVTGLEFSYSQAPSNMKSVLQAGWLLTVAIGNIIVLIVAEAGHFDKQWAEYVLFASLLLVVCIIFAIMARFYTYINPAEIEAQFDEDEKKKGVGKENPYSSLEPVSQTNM
As to the kind of experiment: TP_TRANSPORTER: inhibition of Ceftibuten uptake (Ceftibuten: 1000 uM, Gly-Gly-Phe: 10000 uM) in PEPT1-expressing LLC-PK1 cells.

Data set [2] deals with T1, Solute carrier family 15 member 1 (Rattus norvegicus). As to the kind of experiment: TP_TRANSPORTER: inhibition of Cephradine uptake (Cephradine: 1000 uM, Gly-Gly-Phe: 10000 uM) in PEPT1-expressing LLC-PK1 cells.
The target is the same in data set [3]. Put plainly: TP_TRANSPORTER: inhibition of Ceftibuten uptake (Ceftibuten: 1000 uM, Cefixime: 10000 uM) in PEPT1-expressing LLC-PK1 cells.
Data set [4] shares this target. Put plainly: TP_TRANSPORTER: inhibition of Cephradine uptake (Cephradine: 1000 uM, Bestatin: 10000 uM) in PEPT1-expressing LLC-PK1 cells.
Data set [5] has the same target. As to the kind of experiment: (§1) TP_TRANSPORTER: uptake in PEPT1-expressing LLC-PK1 cells.
Data set [6] shares this target. As to the kind of experiment: TP_TRANSPORTER: inhibition of Ceftibuten uptake (Ceftibuten: 1000 uM, Bestatin: 10000 uM) in PEPT1-expressing LLC-PK1 cells.
Data set [7] has the same target. Put plainly: TP_TRANSPORTER: inhibition of Ceftibuten uptake (Ceftibuten: 1000 uM, Gly-Sar: 10000 uM) in PEPT1-expressing LLC-PK1 cells.
Data set [8] shares this target. As to the kind of experiment: TP_TRANSPORTER: inhibition of Cephradine uptake (Cephradine: 1000 uM, Gly-Sar: 10000 uM) in PEPT1-expressing LLC-PK1 cells.
Data set [9] has the same target. Put plainly: TP_TRANSPORTER: inhibition of Cephradine uptake (Cephradine: 1000 uM, Ceftibuten: 5000 uM) in PEPT1-expressing LLC-PK1 cells.
The target is the same in data set [10]. As to the kind of experiment: TP_TRANSPORTER: inhibition of Ceftibuten uptake (Ceftibuten: 1000 uM, Gly-Leu: 10000 uM) in PEPT1-expressing LLC-PK1 cells.
The target is the same in data set [11]. Put plainly: TP_TRANSPORTER: inhibition of Cephradine uptake (Cephradine: 1000 uM, Gly-Leu: 10000 uM) in PEPT1-expressing LLC-PK1 cells.
Substrate in data set [12]: Nc1nc(/C(=C/CC(=O)O)C(=O)N[C@@H]2C(=O)N3C(C(=O)O)=CCS[C@H]23)cs1
Described as §1.

Substrate in data set [13]: CC1=C(C(=O)O)N2C(=O)[C@@H](NC(=O)[C@H](N)C3=CCC=CC3)[C@H]2SC1
The description is as §1.

Where a SMILES comes first, the peptide text is derived from it.

Here are results for 7 molecules from ChEMBL document CHEMBL2074536, “Characterization of stably transfected kidney epithelial cell line expressing rat H+/peptide cotransporter PEPT1: localization of PEPT1 and transport of beta-lactam antibiotics” (J Pharmacol Exp Ther, 1997).

With `NCC(=O)NCC(=O)N[C@@H](Cc1ccccc1)C(=O)O` (H-Gly-Gly-Phe-OH), the Activity result in data set [1] and in data set [2] was “inhibitor [+]” throughout.
As for `C=CC1=C(C(=O)O)N2C(=O)[C@@H](NC(=O)/C(=N\OCC(=O)O)c3csc(N)n3)[C@H]2SC1`, the Activity result in data set [3] is “inhibitor [+]”.
With `CC(C)C[C@H](NC(=O)[C@@H](O)[C@H](N)Cc1ccccc1)C(=O)O`, the values for the Activity entry in data set [4], in data set [5] and in data set [6] were “inhibitor [+]”, “substrate [+]” and “inhibitor [+]”, respectively.
As to `CN(CC(=O)O)C(=O)CN` (HELM PEPTIDE1{G.[Sar]}$$$$V2.0), the Activity result in data set [7] and in data set [8] was “inhibitor [+]” each time.
On to `Nc1nc(/C(=C/CC(=O)O)C(=O)N[C@@H]2C(=O)N3C(C(=O)O)=CCS[C@H]23)cs1`, for which the Activity entry in data set [9] was “inhibitor [+]”.
On to `CC(C)C[C@H](NC(=O)CN)C(=O)O`, for which the Activity entry in data set [10] and in [11] was “inhibitor [+]” each time.

B1: Solute carrier family 15 member 1 (Rattus norvegicus), P51574 (protein)
chain: MGMSKSRGCFGYPLSIFFIVVNEFCERFSYYGMRALLVLYFRNFLGWDDDLSTAIYHTFVALCYLTPILGALIADSWLGKFKTIVSLSIVYTIGQAVISVSSINDLTDHDHDGSPNNLPLHVALSMIGLALIALGTGGIKPCVSAFGGDQFEEGQEKQRNRFFSIFYLAINAGSLLSTIITPILRVQQCGIHSQQACYPLAFGVPAALMAVALIVFVLGSGMYKKFQPQGNIMGKVAKCIRFAIKNRFRHRSKAFPKRNHWLDWAKEKYDERLISQIKIMTKVMFLYIPLPMFWALFDQQGSRWTLQATTMTGKIGTIEIQPDQMQTVNAILIVIMVPIVDAVVYPLIAKCGFNFTSLKKMTVGMFLASMAFVVAAIVQVEIDKTLPVFPSGNQVQIKVLNIGNNDMAVYFPGKNVTVAQMSQTDTFMTFDVDQLTSINVSSPGSPGVTTVAHEFEPGHRHTLLVWGPNLYRVVKDGLNQKPEKGENGIRFVSTLNEMITIKMSGKVYENVTSHSASNYQFFPSGQKDYTINTTEIAPNCSSDFKSSNLDFGSAYTYVIRSRASDGCLEVKEFEDIPPNTVNMALQIPQYFLLTCGEVVFSVTGLEFSYSQAPSNMKSVLQAGWLLTVAIGNIIVLIVAEAGHFDKQWAEYVLFASLLLVVCIIFAIMARFYTYINPAEIEAQFDEDEKKKGVGKENPYSSLEPVSQTNM
B1: the Km in data set [12] is 1.5 mM; in [13], 8.2 mM.
